Measurements reported in patent publication US8853215B2, “Derivatives of N-acyl-N′-phenylpiperazine useful (inter alia) for the prophylaxis or treatment of diabetes” (Takeda Pharmaceutical Company Limited, priority 2009, dated 2014).

Tests used:
[1] = target: human RBP4 (Homo sapiens (Human), UniProt P02753); assay: Binding assay by Retinol-RBP4-TTR ELISA; settings: at 10 μM compound; read-out: human RBP4 binding inhibitory activity(% at 10 μM)
Summary of the method: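 Biotinylated human TTR was captured on streptavidin plates, then His-tagged human RBP4 was added with compound premixed with 50 nM retinol (8 doses). Binding ran 2 h at room temperature in 50 mM Tris-HCl, 150 mM NaCl, 0.005% Tween 20, 1 mM DTT, 0.1% BSA, read by luminescence. Inhibition was scaled between retinol+DMSO and retinol-free controls, and IC50 fitted.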

[2] = target: RBP4 (Rattus norvegicus (Rat), UniProt P04916); assay: Single administration test in Wistar fatty rats, plasma RBP4 by ELISA; type: in vivo; settings: male Wistar fatty rats, 10 mg/kg oral single dose, mean±SD
Experimental: The action of the compounds of the present invention to lower plasma RBP4 level was evaluated using the animal model shown below.
(§1) Male Wistar fatty rats (fa/fa) were bred in Takeda Pharmaceutical Company Limited and maintained on normal diet (CE2, CLAE Japan, Inc.) and tap water. Animals were housed in a temperature-controlled room adjusted to a 12-hour light/12-hour dark cycle beginning at 7:00 and 19:00, respectively. All procedures were conducted according to the experimental animal care use committee of Takeda Pharmaceutical Company.
Male 13-43-week-old Wistar fatty rats were divided into groups randomly. Compounds were suspended in 0.5% (w/v) methylcellulose in water and given orally to Wistar fatty rats at a dose of 10 mg/10 mL/kg of body weight (3-5 rats per group). Blood samples were obtained from tail vein with sodium heparin as an anticoagulant at time 0 hr (just before the administration), 4 hr, 7 hr, and 24 hr after the administration, followed by plasma separation by centrifugation. Plasma RBP4 levels were measured by enzyme-linked immunosorbent assay described in the following section.
Plasma samples were analyzed in duplicate for RBP4 by an enzyme-linked immunosorbent assay. Mouse recombinant RBP4 (Takeda Pharmaceutical Company Limited) was used as standards, and the assay range was 0.313-20 ng/ml. Samples were diluted 10,000-fold with phosphate-buffered saline (PBS) (Sigma) containing 10% (w/v) BlockAce (Dainippon Sumitomo Pharma Co., Ltd). Rabbit anti-RBP4 polyclonal antibody (100 μL/well of 50 μg/mL, Hokudo Co, Ltd) was incubated in a 96-well plate (Nalge Nunc International K.K.) for overnight at 4° C. Subsequently, the plates were washed with PBS-T (Wako Pure Chemical Industries, Ltd.) and blocked with PBS containing 25% BlockAce for 1 hr at room temperature. After another washing with PBS-T, samples and standards were applied to the well, and the plates were incubated for 2 hr at room temperature. After a washing the wells, peroxidase-labeled (Dojindo Laboratories) anti-RBP4 (100 μL/well) was added to the wells, and then the plates were incubated for 1 hr at room temperature. After a final washing with PBS-T, substrate solution 3,3,5,5-tetramethylbenzidine (Sigma) was added to the wells, and the plates were placed in the dark for 5-20 min at room temperature. The reaction was stopped with 0.5 M sulphuric acid and the optical density was measured with a spectrophotometer at 450 nm. The changes in plasma RBP4 levels were expressed as % of initial/Control. All data are presented as mean±SD.

[3] = system: CD (SD) rats; assay: Repeated drug administration test in CD (SD) rats, retinol in plasma and retina by HPLC; type: in vivo
Experimental: The effect of the compound on retinol level in retina was evaluated using the animal model shown below.
as §1, with “CD (SD)” for “Wistar fatty”, “rats” for “rats (fa/fa)”, “purchased from Charles River (Japan)” for “bred in Takeda Pharmaceutical Company Limited”, “(CR-LPF) (Oriental Yeast Co., Ltd.)” for “(CE2, CLAE Japan, Inc.)”
A compound was suspended in 0.5% (w/v) methylcellulose in water and given orally to rats at a volume of 10 mL/kg of body weight. Drug administration was started at 6 weeks of age and a drug (10 mg/kg) was administered once a day for 14 days. After repeated administration, blood samples were obtained from tail vein. Rats were dissected under anesthesia with ethyl ether and eyes were isolated.
Retina was isolated from the eye of the rats mentioned 5B with stereoscopic microscope and sonicated. Retinol was extracted into n-hexane and samples were taken to dryness under nitrogen gas. Samples residues were resuspended into 2-propanol and analyzed by HPLC. Chromatographic separations were achieved on TSKgel ODS120T Column (4.6×250 mm) (Tosoh) using Alliance series reverse phase HPLC (Waters). The mobile phase contained acetonitrile/methanol (3/1) at 4° C. and detected at UV 325 nm. Retinol in retina was corrected by total protein detected by BCA protein assay (Pierce).

inhibition at 10 µM [1]: 100%
RBP4 (% of initial/Control) 0 hr ([2]; 0 hr (just before the administration)): 100 ± 22.9 % of initial/Control
RBP4 (% of initial/Control) 4 hr ([2]; 4 hr after administration): 34.7 ± 13.7 % of initial/Control
RBP4 (% of initial/Control) 7 hr ([2]; 7 hr after administration): 24.9 ± 10.6 % of initial/Control
RBP4 (% of initial/Control) 24 hr ([2]; 24 hr after administration): 9.2 ± 6.1 % of initial/Control
SMILES: O=C(O)CCc1nc(-c2cc(C(F)(F)F)cc(C(F)(F)F)c2)co1 [Reference Example 26, 3-{4-[3,5-bis(trifluoromethyl)phenyl]-1,3-oxazol-2-yl}propanoic acid, reference compound]
effect on retinol in plasma and retina (in words) ([3]; CD (SD) rats, 10 mg/kg, 14 days repeated administration): decreased retinol in plasma and retina significantly
Retinol in retina ([3]; male CD (SD) rats, 10 mg/kg oral once a day for 14 days, corrected by total protein, mean±SD): 0.06 ± 0.01 µg/mg
Retinol in plasma (μg/mL) ([3]; male CD (SD) rats, 10 mg/kg oral once a day for 14 days, mean±SD): Not detected
